From patent publication EP0641797A1, “Cephem derivatives and antimicrobial agents containing the same” (KATAYAMA SEIYAKUSYO CO. Ltd., priority 1993, dated 1995)
In brackets after ≈: the same amount, converted by molar mass.

Experiments:
Assay in all cases: MIC on standard strains, standard method of Japan Society of Chemotherapy
Format in all cases: cell-based
[1] = system: A. calcoaceticos T59; conditions: read-out: MIC
Experimental: (§1) Antimicrobial activity of the compounds of the present invention were measured using CTM (cefotiam) and FMOX (flomoxef) as control drugs in accordance with the standard method of Japan Society of Chemotherapy. Of the 25 standard strains used in this test, Staphylococcus aureus 167 and Staphylococcus aureus 195 belong to MRSA.
(§2) In these tables, drugs tested are shown by the corresponding examples in which they were synthesized.

[2] = system: A. faecalis ATCC 3750; conditions: Alcaligenes faecalis, ATCC3750, A. faecalis ATCC 3750; read-out: MIC
Experimental: as §1, §2

[3] = system: B. subtilis ATCC 6633; conditions: Bacillus subtilis, ATCC6633, B. subtilis ATCC 6633; read-out: MIC
Experimental: as §1, §2

[4] = system: C. freundii ATCC 8090; conditions: Citrobacter freundii, ATCC8090, C. freundii ATCC 8090; read-out: MIC
Experimental: as §1, §2

[5] = system: E. cloacae ATCC 13407; conditions: Enterobacter cloacae, ATCC13407, E. cloacae ATCC 13407; read-out: MIC
Experimental: as §1, §2

[6] = system: E. cloacae Nek39; conditions: Enterobacter cloacae, NEK39, E. cloacae Nek39; read-out: MIC
Experimental: as §1, §2

[7] = system: E. coli CSH2(RE45); conditions: Escherichia coli
Experimental: as §1, §2

[8] = system: E. coli CSH2(RK1); conditions: Escherichia coli
Experimental: as §1, §2

[9] = system: E. coli NHIJ JC-2; conditions: Escherichia coli, NHIJJC2
Experimental: as §1, §2

[10] = system: K. pneuminiae IFO 3317
Experimental: as §1, §2

[11] = system: K. pneuminiae No. 42
Experimental: as §1, §2

[12] = system: M. luteus ATCC 9341; conditions: Micrococcus luteus, ATCC9341
Experimental: as §1, §2

[13] = system: M. morganii IFO 3848; conditions: Morganella morganii, IFO3848
Experimental: as §1, §2

[14] = system: P. aeruginosa AKR17; conditions: Pseudomonas aeruginosa
Experimental: as §1, §2

[15] = system: P. aeruginosa NCTC 10490; conditions: Pseudomonas aeruginosa, NCTC10490, P. aeruginosa NCTC 10490; read-out: MIC
Experimental: as §1, §2

[16] = system: P. cepacia; conditions: Burkholderia cepacia, read-out: MIC
Experimental: as §1, §2

[17] = system: P. mirabilis IFO 3849; conditions: Proteus mirabilis, IFO3849, P. mirabilis IFO 3849; read-out: MIC
Experimental: as §1, §2

[18] = system: P. vulugaris OX-19
Experimental: as §1, §2

[19] = system: S. aureus 167; conditions: Staphylococcus aureus; S. aureus 167 (MRSA)
Experimental: as §1, §2

[20] = system: S. aureus 195; conditions: Staphylococcus aureus; S. aureus 195 (MRSA)
Experimental: as §1, §2

[21] = system: S. aureus 209p JC-1; conditions: Staphylococcus aureus, 209P, read-out: MIC
Experimental: as §1, §2

[22] = system: S. aureus Smith; conditions: Staphylococcus aureus, read-out: MIC
Experimental: as §1, §2

[23] = system: S. epidemidis IAM 1296
Experimental: as §1, §2

[24] = system: S. marcescens IAM 1184; conditions: Serratia marcescens, IAM1184, S. marcescens IAM 1184; read-out: MIC
Experimental: as §1, §2

[25] = system: S. marcescens No. 16-2; conditions: Serratia marcescens, NO.162
Experimental: as §1, §2

| Compound | MIC [1] [µg/mL] | MIC [2] [µg/mL] | MIC [3] [µg/mL] | MIC [4] [µg/mL] | MIC [5] [µg/mL] | MIC [6] [µg/mL] | MIC [7] [µg/mL] | MIC [8] [µg/mL] | MIC [9] [µg/mL] | MIC [10] [µg/mL] | MIC [11] [µg/mL] | MIC [12] [µg/mL] | MIC [13] [µg/mL] | MIC [14] [µg/mL] | MIC [15] [µg/mL] | MIC [16] [µg/mL] | MIC [17] [µg/mL] | MIC [18] [µg/mL] | MIC [19] [µg/mL] | MIC [20] [µg/mL] | other results |
| --- | --- | --- | --- | --- | --- | --- | --- | --- | --- | --- | --- | --- | --- | --- | --- | --- | --- | --- | --- | --- | --- |
| Nc1nc(/C(=N/O)C(=O)N[C@@H]2C(=O)N3C(C(=O)[O-])=C(C[n+]4ccc(-c5nsc(N)n5)cc4)CS[C@H]23)cs1 [Ex. 11, 7β-[2-(2-aminothiazol-4-yl)-2-syn-hydroxyiminoacetamido]-3-[4-(5-amino-1,2,4-thiadiazol-3-yl)pyridinio]methyl-3-cephem-4-carboxylate] | 25 (≈ 44.7 µM) | 1.56 (≈ 2.79 µM) | 0.1 (≈ 0.179 µM) | 0.2 (≈ 0.357 µM) | 6.25 (≈ 11.2 µM) | > 100 | 0.2 (≈ 0.357 µM) | 0.39 (≈ 0.697 µM) | 0.1 (≈ 0.179 µM) | 0.1 (≈ 0.179 µM) | 0.39 (≈ 0.697 µM) | 0.05 (≈ 0.0893 µM) | 0.05 (≈ 0.0893 µM) | > 100 | 3.13 (≈ 5.59 µM) | > 100 | 0.2 (≈ 0.357 µM) | 0.1 (≈ 0.179 µM) | 6.25 (≈ 11.2 µM) | 1.56 (≈ 2.79 µM) | MIC [21]: 0.1 µg/mL (≈ 0.179 µM); MIC [22]: 0.1 µg/mL (≈ 0.179 µM); MIC [23]: 0.05 µg/mL (≈ 0.0893 µM); MIC [24]: 0.39 µg/mL (≈ 0.697 µM); MIC [25]: 100 µg/mL (≈ 179 µM) |
| Nc1nc(/C(=N/O)C(=O)N[C@@H]2C(=O)N3C(C(=O)[O-])=C(C[n+]4cccc(-c5nsc(N)n5)c4)CS[C@H]23)cs1 [Ex. 12, 7β-[2-(2-aminothiazol-4-yl)-2-syn-hydroxyiminoacetamido]-3-[3-(5-amino-1,2,4-thiadiazol-3-yl)pyridinio]methyl-3-cephem-4-carboxylate] | 12.5 (≈ 22.3 µM) | 1.56 (≈ 2.79 µM) | 0.2 (≈ 0.357 µM) | 0.39 (≈ 0.697 µM) | 3.13 (≈ 5.59 µM) | 100 (≈ 179 µM) | 0.39 (≈ 0.697 µM) | 0.78 (≈ 1.39 µM) | 0.39 (≈ 0.697 µM) | 0.2 (≈ 0.357 µM) | 0.78 (≈ 1.39 µM) | 0.025 (≈ 0.0447 µM) | 0.1 (≈ 0.179 µM) | > 100 | 6.25 (≈ 11.2 µM) | > 100 | 0.39 (≈ 0.697 µM) | 0.39 (≈ 0.697 µM) | 6.25 (≈ 11.2 µM) | 1.56 (≈ 2.79 µM) | MIC [21]: 0.2 µg/mL (≈ 0.357 µM); MIC [22]: 0.39 µg/mL (≈ 0.697 µM); MIC [23]: 0.05 µg/mL (≈ 0.0893 µM); MIC [24]: 0.78 µg/mL (≈ 1.39 µM); MIC [25]: 100 µg/mL (≈ 179 µM) |
| Nc1nc(-c2cc[n+](CC3=C(C(=O)[O-])N4C(=O)[C@@H](NC(=O)/C(=N\O)c5csc(N)n5)[C@H]4SC3)cc2)no1 [Ex. 13, 7β-[2-(2-aminothiazol-4-yl)-2-syn-hydroxyiminoacetamido]-3-[4-(5-amino-1,2,4-oxadiazol-3-yl)pyridinio]methyl-3-cephem-4-carboxylate] | 12.5 (≈ 23 µM) | 1.56 (≈ 2.87 µM) | 0.2 (≈ 0.368 µM) | 0.2 (≈ 0.368 µM) | 3.13 (≈ 5.76 µM) | > 100 | 0.39 (≈ 0.718 µM) | 0.39 (≈ 0.718 µM) | 0.2 (≈ 0.368 µM) | 0.2 (≈ 0.368 µM) | 0.78 (≈ 1.44 µM) | 0.025 (≈ 0.046 µM) | 0.1 (≈ 0.184 µM) | > 100 | 1.56 (≈ 2.87 µM) | > 100 | 0.39 (≈ 0.718 µM) | 0.2 (≈ 0.368 µM) | 6.25 (≈ 11.5 µM) | 3.13 (≈ 5.76 µM) | MIC [21]: 0.2 µg/mL (≈ 0.368 µM); MIC [22]: 0.39 µg/mL (≈ 0.718 µM); MIC [23]: 0.1 µg/mL (≈ 0.184 µM); MIC [24]: 0.39 µg/mL (≈ 0.718 µM); MIC [25]: 100 µg/mL (≈ 184 µM) |
